From the Biogen ADME set (Fang et al. 2023) come the findings set out here.

Values after ≈ are worked out from the molar mass of the structure shown.

For this data set the following is noted: for aqueous solubility: pH 6.8.

On to `Cc1nnc(-c2ccc3occ(-c4ccc(S(C)=O)cc4)c3c2)o1` (stereo not drawn), for which the MDR1-MDCK efflux ratio was 1.98; the fraction unbound, human plasma is 0.0156; the fraction unbound, rat plasma was found to be 0.12; the intrinsic clearance, human liver microsomes is at most 4.74 mL/min/kg. Besides, the intrinsic clearance, rat liver microsomes stood at 61.5 mL/min/kg and the aqueous solubility was 44.8 µg/mL (≈ 132 µM).
As for `CN1C(=O)N[C@H](Cc2c[nH]c3c(Cl)cccc23)C1=O`, the intrinsic clearance, human liver microsomes is 8.58 mL/min/kg and the intrinsic clearance, rat liver microsomes was found to be 77.1 mL/min/kg.
As to `CC(C)NC(=O)Cn1nnnc1C(C)(C)C`, the MDR1-MDCK efflux ratio was 1.25; the intrinsic clearance, human liver microsomes was at most 4.74 mL/min/kg; the intrinsic clearance, rat liver microsomes was found to be 27.1 mL/min/kg; the aqueous solubility was 23.3 µg/mL (≈ 103 µM).
Take `Cc1ccc(C#N)c(NCc2ccccc2-n2ccnc2)n1`: the MDR1-MDCK efflux ratio turned out to be 1.76; the intrinsic clearance, human liver microsomes is 45.7 mL/min/kg; the intrinsic clearance, rat liver microsomes worked out at 621 mL/min/kg.
Regarding `O=c1c2cccn2c2ccccc2n1CCCN1CCC(c2ccc(Cl)cc2)CC1`, the MDR1-MDCK efflux ratio stood at 5.19; the intrinsic clearance, human liver microsomes amounted to 183 mL/min/kg; the intrinsic clearance, rat liver microsomes amounted to 1330 mL/min/kg; the aqueous solubility is 19.8 µg/mL (≈ 47 µM).
For `COc1ccc(OCc2nn3c(-c4ccc(OC)cc4)nnc3s2)cc1`, the MDR1-MDCK efflux ratio is 0.536 and the aqueous solubility worked out at 0.2 µg/mL (≈ 0.543 µM).
For the compound `O=C(Cc1c(F)cccc1Cl)Nc1cccc2cnccc12`, the MDR1-MDCK efflux ratio came to 0.889; the intrinsic clearance, human liver microsomes was 62.6 mL/min/kg; the intrinsic clearance, rat liver microsomes stood at 288 mL/min/kg; the aqueous solubility stood at 2.09 µg/mL (≈ 6.64 µM).
On the same counts, the results for `COc1ccncc1NCc1ccc2c(c1)OCCO2` are 0.666, 17.8 mL/min/kg, 570 mL/min/kg and 31.1 µg/mL (≈ 114 µM).
Consider `O=C(Cn1cc(NCc2cccc(Cl)c2)cn1)N1CCOCC1`, for which the MDR1-MDCK efflux ratio amounted to 4.24; the intrinsic clearance, human liver microsomes was determined as 5.9 mL/min/kg; the intrinsic clearance, rat liver microsomes was determined as 71.9 mL/min/kg.
With `CNC(=O)c1sc2ncccc2c1[C@H]1CC[C@H](CNC(=O)CCc2ccccc2)CC1`, the MDR1-MDCK efflux ratio came to 33.7; the intrinsic clearance, human liver microsomes is 206 mL/min/kg; the intrinsic clearance, rat liver microsomes came to 1460 mL/min/kg; the aqueous solubility amounted to 61.7 µg/mL (≈ 142 µM).
The matching figures for `O=C(c1ccc(-n2cccn2)nc1)N1CCN(c2ccccc2O)CC1`: 0.747, 5.81 mL/min/kg, 127 mL/min/kg and 42.5 µg/mL (≈ 122 µM).
In the case of `C[C@@H](CO)Nc1nc(C(F)(F)F)nc2[nH]cnc12`, the MDR1-MDCK efflux ratio was determined as 6.72; the intrinsic clearance, human liver microsomes was at most 4.74 mL/min/kg; the intrinsic clearance, rat liver microsomes was at most 10.7 mL/min/kg; the aqueous solubility is 40 µg/mL (≈ 153 µM).
As for `O=C(CCn1nnc2ccccc2c1=O)Nc1ccncc1`, the MDR1-MDCK efflux ratio came out at 4.06; the intrinsic clearance, human liver microsomes was determined as 9.23 mL/min/kg; the intrinsic clearance, rat liver microsomes turned out to be 84.8 mL/min/kg; the aqueous solubility was 21.4 µg/mL (≈ 72.3 µM).
For `O=C(Nc1ccc2ccccc2n1)c1ccc(N2CCOC2=O)cc1`, the MDR1-MDCK efflux ratio was 0.594; the fraction unbound, human plasma turned out to be 0.0281; the fraction unbound, rat plasma was 0.0117; the intrinsic clearance, human liver microsomes came to 5.17 mL/min/kg. The compound also registered an intrinsic clearance, rat liver microsomes of 45.6 mL/min/kg and an aqueous solubility of 2.85 µg/mL (≈ 8.55 µM).
Regarding `CC(=O)Nc1cccc(OCC(=O)N2CCCCC2)c1`, the MDR1-MDCK efflux ratio was found to be 11.9; the intrinsic clearance, human liver microsomes was at most 4.74 mL/min/kg; the intrinsic clearance, rat liver microsomes is 126 mL/min/kg; the aqueous solubility is 42.4 µg/mL (≈ 153 µM).
`O=C(Nc1nccs1)[C@@H]1C[C@@H]2CCCC[C@@H]2N1C(=O)c1ccccc1`: the MDR1-MDCK efflux ratio was 6.31; the intrinsic clearance, human liver microsomes amounted to 36.7 mL/min/kg; the intrinsic clearance, rat liver microsomes is 498 mL/min/kg.
`CC(C)(C)c1ccc(-c2nc3n(c(=O)c2C#N)CCS3)cc1` showed a fraction unbound, human plasma of 0.0539; a fraction unbound, rat plasma of 0.0286; an intrinsic clearance, human liver microsomes of 8.57 mL/min/kg; an intrinsic clearance, rat liver microsomes of 191 mL/min/kg. The aqueous solubility is 2.5 µg/mL (≈ 8.03 µM).
With `Cc1nc2ccccc2c(N)c1C(=O)/C=C/c1ccccc1`, the MDR1-MDCK efflux ratio stood at 0.244; the intrinsic clearance, human liver microsomes turned out to be 50 mL/min/kg; the intrinsic clearance, rat liver microsomes came out at 922 mL/min/kg; the aqueous solubility came to 41.4 µg/mL (≈ 144 µM).
Compound `CC(C)NC(=O)CN(C#N)c1ccccc1` showed an intrinsic clearance, human liver microsomes of at most 4.74 mL/min/kg and an intrinsic clearance, rat liver microsomes of at most 10.7 mL/min/kg.
With `CC(=O)NCc1ncc(-c2ccccc2C(=O)O)cn1`, the intrinsic clearance, human liver microsomes is at most 4.74 mL/min/kg; the intrinsic clearance, rat liver microsomes was at most 10.7 mL/min/kg; the aqueous solubility worked out at 59.4 µg/mL (≈ 219 µM).
As to `Fc1cc(-c2ccncc2)ccc1CNc1ncccn1`, the MDR1-MDCK efflux ratio stood at 0.843; the intrinsic clearance, human liver microsomes turned out to be 24.4 mL/min/kg; the intrinsic clearance, rat liver microsomes came out at 238 mL/min/kg.
The matching figures for `O=C(NCc1cccs1)c1cccnc1`: 0.62, at most 4.74 mL/min/kg and at most 10.7 mL/min/kg.
On to `Cc1cc(CSCc2c(C)noc2C)no1`, for which the intrinsic clearance, human liver microsomes came to 130 mL/min/kg and the intrinsic clearance, rat liver microsomes was 1910 mL/min/kg.
The compound `C=CCN(c1ccc(C(=O)OC)cc1)S(=O)(=O)c1ccccc1` had an aqueous solubility of 2.24 µg/mL (≈ 6.76 µM).
On the same count and under the same terms, the same measure for `O=C(CNC(=O)c1ccc(Cl)cc1)Nc1nc(-c2ccc3ccccc3c2)cs1`: 0.4 µg/mL (≈ 0.948 µM).
For the compound `Cc1nnc(CN(C)Cc2cnn(C)c2C)s1`, the MDR1-MDCK efflux ratio is 1.44; the intrinsic clearance, human liver microsomes was at most 4.74 mL/min/kg; the intrinsic clearance, rat liver microsomes stood at 20 mL/min/kg.
For `O=S(=O)(NCCC(c1ccccc1)c1ccccc1)c1ccc(Cl)cc1`, the intrinsic clearance, human liver microsomes is 396 mL/min/kg and the intrinsic clearance, rat liver microsomes is 9320 mL/min/kg.
Consider `O=c1cc2c(n[nH]1)-c1cnc(N3CCCCC3)nc1CC2`, for which the MDR1-MDCK efflux ratio worked out at 0.565; the intrinsic clearance, human liver microsomes is 4.86 mL/min/kg; the intrinsic clearance, rat liver microsomes came out at 110 mL/min/kg.
`CCCn1nccc1NC(=O)c1c(C)noc1C`: the MDR1-MDCK efflux ratio is 1.59; the intrinsic clearance, human liver microsomes is at most 4.74 mL/min/kg; the intrinsic clearance, rat liver microsomes is at most 10.7 mL/min/kg; the aqueous solubility came out at 31.5 µg/mL (≈ 127 µM).
The matching figures for `COc1cccc(CN2Cc3ccccc3OC3(CCOCC3)C2)c1`: 0.527, 133 mL/min/kg, 1580 mL/min/kg and 16.1 µg/mL (≈ 47.3 µM).
The matching figures for `Cn1cc(NC(=O)c2ccc(OCC3CCOCC3)nc2)cn1`: 2.95, at most 4.74 mL/min/kg, 41.2 mL/min/kg and 50.1 µg/mL (≈ 158 µM).
Turning to `COCC(=O)Nc1cccc(-n2cccc2)c1`, the MDR1-MDCK efflux ratio came to 0.498; the intrinsic clearance, human liver microsomes amounted to 205 mL/min/kg; the intrinsic clearance, rat liver microsomes is 129 mL/min/kg; the aqueous solubility came out at 50.9 µg/mL (≈ 221 µM).
The matching figures for `CCNC(=O)N1CCC(c2nc(-c3ccccc3)no2)CC1`: 0.841, at most 4.74 mL/min/kg, 44.8 mL/min/kg and 52.8 µg/mL (≈ 176 µM).

One may read the aqueous solubility as how much of the substance goes into solution per volume. Read a high aqueous solubility as a readily soluble substance.
